Reference: patent US7348413B2, “Cancerous disease modifying antibodies” (Arius Research Inc., priority 2004, dated 2008)

Test system: PC-3, LnCap and CCD-27sk
Conditions: 5 days
Experimental: In conjunction with testing for antibody binding the cytotoxic effect of the hybridoma supernatants were tested in the same cell lines: PC-3, LnCap and CCD-27sk. The Live/Dead cytotoxicity assay was obtained from Molecular Probes (Eu, OR). The assays were performed according to the manufacturer's instructions with the changes outlined below. Cells were plated before the assay at the predetermined appropriate density. After 2 days, 100 μl of supernatant from the hybridoma microtitre plates were transferred to the cell plates and incubated in a 5 percent CO2 incubator for 5 days. […] After 5 days of treatment, the plates were then emptied by inverting and blotting dry. Room temperature DPBS (Dulbecco's phosphate buffered saline) containing MgCl2 and CaCl2 was dispensed into each well from a multichannel squeeze bottle, tapped 3 times, emptied by inversion and then blotted dry. 50 μl of the fluorescent calcein dye diluted in DPBS containing MgCl2 and CaCl2 was added to each well and incubated at 37° C. in a 5% CO2 incubator for 30 minutes. The plates were read in a Perkin-Elmer HTS7000 fluorescence plate reader and the data was analyzed in Microsoft Excel.

Row | SMILES | cytotoxicity of positive controls
1 | [N-]=[N+]=[N-] [NaN3, sodium azide] | generally produced cytotoxicity as expected
2 | C[C@@H]1C[C@@H]([C@H](O)CC2CC(=O)NC(=O)C2)C(=O)[C@@H](C)C1 [cycloheximide] | generally produced cytotoxicity as expected
